As usually defined, the Solubility is the dissolved amount per volume that the medium holds. For orientation: pIC50 means −log10 of the IC50, conventionally taken in molar units.

This note sets out measurements from patent US12637462B2, “Integrin inhibitor and uses thereof” (Pliant Therapeutics, Inc., priority 2020, dated 2026).

pIC50: −log10 of the molar value. Converted amounts (≈) assume the structure as drawn. Where two headings read alike, the source gives them in different places.

Data set [1] in a line: Approximate solubility at RT by stepwise solvent addition. The format is physicochemical. The protocol: The approximate solubility of (S)-4-((2-methoxyethyl)(4-(5,6,7,8-tetrahydro-1,8-naphthyridin-2-yl)butyl)amino)-2-(quinazolin-4-ylamino)butanoic acid was determined at RT. Approximately 2 mg of solids were added into a 3-mL glass vial. Different solvents were then added stepwise (50-50-200-700 μL for each step) into the vials and stirred until the solids were dissolved or a total volume of 1 mL was reached.
The approximate solubility of Form I was determined at RT. Approximately 2 mg of solids were added into 3-mL glass vials. Different solvents were then added stepwise (50-50-200-700 μL for each step) into the vials until the solids were dissolved or a total volume of 1 mL was reached.

The target in data set [2] is recombinant human integrin αvβ6 (Homo sapiens, UniProt P06756+P18564). Description: Solid phase integrin αvβ6 binding assay. The settings on record: TGFβ1 LAP binding to coated integrin, four-parameter logistic regression; read-out: IC50 for αvβ6 integrin inhibition. How it is done:
Microplates were coated with recombinant human integrin αvβ6 (2 μg/mL) in PBS (100 μL/well 25° C., overnight). The coating solution was removed, washed with wash buffer (0.05% Tween 20; 0.5 mM MnCl2; in 1×TBS). The plate was blocked with 200 μL/well of Block Buffer (1% BSA; 5% sucrose; 0.5 mM MnCl2; in 1×TBS) at 37° C. for 2 h. Dilutions of testing compounds and recombinant TGFβ1 LAP (0.67 μg/mL) in binding buffer (0.05% BSA; 2.5% sucrose; 0.5 mM MnCl2; in 1×TBS) were added. The plate was incubated for 2 hours at 25° C., washed, and incubated for 1 hour with Biotin-Anti-hLAP. Bound antibody was detected by peroxidase-conjugated streptavidin. The IC50 values for testing compounds were calculated by a four-parameter logistic regression. The IC50 value obtained for αvβ6 integrin inhibition for (S)-4-((2-methoxyethyl)(4-(5,6,7,8-tetrahydro-1,8-naphthyridin-2-yl)butyl)amino)-2-(quinazolin-4-ylamino)butanoic acid was <50 nM.

Data set [3] is described as follows: Dynamic vapor sorption (DVS). The data set is classed as physicochemical. To be noted: 4.5 g scale batch. How it is done: DVS was measured via a SMS (Surface Measurement Systems) DVS Intrinsic. The relative humidity at 25° C. were calibrated against the deliquescence point of LiCl, Mg(NO3)2 and KCl.
Form I on 4.5 g scale was obtained via slurrying 4.5 g amorphous freeform of (S)-4-((2-methoxyethyl)(4-(5,6,7,8-tetrahydro-1,8-naphthyridin-2-yl)butyl)amino)-2-(quinazolin-4-ylamino)butanoic acid and an equimolar amount of 85% phosphoric acid (1.05 g) in anhydrous EtOH (≥99.7%) (112 mL) at RT and seeded with around 1 wt % Form I seed. The product was analyzed by XRPD, DSC, TGA, DVS, ^1H NMR, and HPLC. […] Based on HPLC/IC analysis, the molar ratio of API:phosphoric acid was 1:1.

Data set [4] in a line: Heating experiment, solid form checked by XRPD. The data set is classed as physicochemical. The settings on record: for solid form after heating: after heating to 150° C.

Chain of recombinant human integrin αvβ6 (P06756 31-992 limits assumed): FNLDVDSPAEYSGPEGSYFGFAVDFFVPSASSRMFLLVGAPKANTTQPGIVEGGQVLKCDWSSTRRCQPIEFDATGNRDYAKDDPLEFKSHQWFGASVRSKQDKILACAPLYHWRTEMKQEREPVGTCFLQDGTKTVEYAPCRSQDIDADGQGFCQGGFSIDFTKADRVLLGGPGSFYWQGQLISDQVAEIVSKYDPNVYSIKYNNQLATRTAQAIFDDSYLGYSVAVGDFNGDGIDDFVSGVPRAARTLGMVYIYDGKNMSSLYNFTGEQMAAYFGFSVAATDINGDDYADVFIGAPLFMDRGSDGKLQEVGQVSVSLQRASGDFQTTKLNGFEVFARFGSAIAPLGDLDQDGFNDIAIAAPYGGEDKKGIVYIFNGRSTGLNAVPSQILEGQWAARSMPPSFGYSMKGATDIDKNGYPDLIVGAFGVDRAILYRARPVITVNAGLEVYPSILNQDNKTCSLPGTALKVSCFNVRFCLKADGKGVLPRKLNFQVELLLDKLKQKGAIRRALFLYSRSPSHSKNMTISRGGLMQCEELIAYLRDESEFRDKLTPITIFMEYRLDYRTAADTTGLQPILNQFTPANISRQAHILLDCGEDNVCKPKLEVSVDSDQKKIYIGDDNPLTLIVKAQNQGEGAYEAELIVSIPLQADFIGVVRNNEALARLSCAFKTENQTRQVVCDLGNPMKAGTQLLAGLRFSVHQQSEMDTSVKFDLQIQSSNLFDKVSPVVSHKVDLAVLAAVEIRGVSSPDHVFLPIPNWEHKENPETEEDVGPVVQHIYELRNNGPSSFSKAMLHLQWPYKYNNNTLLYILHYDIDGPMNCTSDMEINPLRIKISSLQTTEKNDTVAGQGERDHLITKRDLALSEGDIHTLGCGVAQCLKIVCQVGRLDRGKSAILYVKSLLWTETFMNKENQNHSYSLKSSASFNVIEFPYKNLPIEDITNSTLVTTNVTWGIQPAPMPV
Chain of recombinant human integrin αvβ6 (P18564 22-707 limits assumed): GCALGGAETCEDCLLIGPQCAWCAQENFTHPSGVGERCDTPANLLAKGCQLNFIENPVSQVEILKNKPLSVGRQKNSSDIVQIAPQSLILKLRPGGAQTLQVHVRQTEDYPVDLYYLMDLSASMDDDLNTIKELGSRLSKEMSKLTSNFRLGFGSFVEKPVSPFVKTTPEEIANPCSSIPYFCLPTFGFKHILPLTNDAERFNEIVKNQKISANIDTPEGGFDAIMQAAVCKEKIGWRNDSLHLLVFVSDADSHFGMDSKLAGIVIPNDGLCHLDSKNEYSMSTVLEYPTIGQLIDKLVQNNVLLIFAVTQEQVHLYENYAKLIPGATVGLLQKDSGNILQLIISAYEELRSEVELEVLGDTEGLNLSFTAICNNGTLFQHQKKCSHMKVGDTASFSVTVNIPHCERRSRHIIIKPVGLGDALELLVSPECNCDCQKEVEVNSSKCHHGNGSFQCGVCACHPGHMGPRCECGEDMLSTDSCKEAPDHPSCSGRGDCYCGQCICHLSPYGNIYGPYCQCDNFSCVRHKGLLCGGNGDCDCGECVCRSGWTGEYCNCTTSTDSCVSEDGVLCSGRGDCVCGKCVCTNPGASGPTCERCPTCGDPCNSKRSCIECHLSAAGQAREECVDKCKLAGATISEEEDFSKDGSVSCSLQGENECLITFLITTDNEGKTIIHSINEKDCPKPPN

As for `COCCN(CCCCc1ccc2c(n1)NCCC2)CC[C@H](Nc1ncnc2ccccc12)C(=O)O` [(S)-4-((2-methoxyethyl)(4-(5,6,7,8-tetrahydro-1,8-naphthyrid] [(S)-4-((2-methoxyethyl)(4-(5,6,7,8-tetrahydro-1,8-naphthyridin-2-yl)butyl)amino)-2-(quinazolin-4-ylamino)butanoic acid], the Solubility result in data set [1] (1,4-Dioxane) is “S > 42.0 mg/mL”; in data set [1] (DCM) it was “S > 38.0 mg/mL”; in data set [1] (DMSO) it was “S > 42.0 mg/mL”; in data set [1] (EtOH) it was “S > 44.0 mg/mL”; in data set [1] (IPA), “S > 48.0 mg/mL”; in data set [1] (THF) it was “S > 32.0 mg/mL”.
For `COCCN(CCCCc1ccc2c(n1)NCCC2)CC[C@H](Nc1ncnc2ccccc12)C(=O)O` [(S)-4-((2-methoxyethyl)(4-(5,6,7,8-tetrahydro-1,8-naphthyridin-2-yl)butyl)amino)-2-(quinazolin-4-ylamino)butanoic acid], the pIC50 in data set [2] was above 7.30. The Solubility is 1900 to 6300 µg/mL (≈ 3.86 to 12.8 mM) in data set [1] (ACN, organic solvent or mixture, thermodynamic from solid, ACN, read-out: Solubility); 2600 to 8700 µg/mL (≈ 5.28 to 17.7 mM) in data set [1] (CPME, organic solvent or mixture, thermodynamic from solid, CPME, read-out: Solubility); 2100 to 7000 µg/mL (≈ 4.26 to 14.2 mM) in data set [1] (EtOAc, organic solvent or mixture, thermodynamic from solid, EtOAc, read-out: Solubility); 2300 to 7700 µg/mL (≈ 4.67 to 15.6 mM) in data set [1] (IPAc, organic solvent or mixture, thermodynamic from solid, IPAc, read-out: Solubility); 2500 to 8300 µg/mL (≈ 5.07 to 16.8 mM) in data set [1] (MIBK, organic solvent or mixture, thermodynamic from solid, MIBK, read-out: Solubility); below 2000 µg/mL in data set [1] (MTBE, organic solvent or mixture, thermodynamic from solid, MTBE, read-out: Solubility). For the same compound, the Solubility in data set [1] (MeOH, organic solvent or mixture, thermodynamic from solid, MeOH, read-out: Solubility) was above 52000 µg/mL; in data set [1] (Toluene, organic solvent or mixture, thermodynamic from solid, Toluene, read-out: Solubility) it was 1900 to 6300 µg/mL (≈ 3.86 to 12.8 mM); in data set [1] (n-Heptane, organic solvent or mixture, thermodynamic from solid, n-Heptane, read-out: Solubility) it was below 2200 µg/mL.
For the compound `COCCN(CCCCc1ccc2c(n1)NCCC2)CC[C@H](Nc1ncnc2ccccc12)C(=O)O` [Form I, (S)-4-((2-methoxyethyl)(4-(5,6,7,8-tetrahydro-1,8-naphthyridin-2-yl)butyl)amino)-2-(quinazolin-4-ylamino)butanoic acid], the Solubility entry in data set [1] (1,4-Dioxane) is listed as “S < 1.7 mg/mL”; in data set [1] (2-MeTHF), “S < 2.1 mg/mL”; in data set [1] (ACN) it was “S < 1.6 mg/mL”; in data set [1] (Acetone), “S < 1.9 mg/mL”; in data set [1] (CPME), “S < 1.9 mg/mL”; in data set [1] (DCM) it was “S < 2.8 mg/mL”. Moreover, the Solubility entry in data set [1] (EtOAc) was “S < 1.7 mg/mL”; in data set [1] (H2O) it was “S > 56.0 mg/mL”; in data set [1] (IPA) it was “S < 2.2 mg/mL”; in data set [1] (IPAc) it was “S < 2.6 mg/mL”; in data set [1] (MEK), “S < 2.4 mg/mL”; in data set [1] (MIBK), “S < 2.8 mg/mL”. Further, the Solubility result is “S < 2.1 mg/mL” in data set [1] (MTBE); “S > 52.0 mg/mL” in data set [1] (MeOH); “S < 1.6 mg/mL” in data set [1] (THF); “S < 2.2 mg/mL” in data set [1] (Toluene); “S < 2.1 mg/mL” in data set [1] (n-Heptane). Besides, the water absorption in data set [3] (25° C./80% RH) is recorded as 16.4%. Further, in data set [3] (after DVS test), the “state after the DVS test” value is given as “deliquescent”. The “form change after heating” value in data set [4] (after heating to 110° C.) is on record as “No form changes”. Further, the “solid form after heating” value in data set [4] is given as “amorphous”.
Regarding `COCCN(CCCCc1ccc2c(n1)NCCC2)CC[C@H](Nc1ncnc2ccccc12)C(=O)O` [Form II, (S)-4-((2-methoxyethyl)(4-(5,6,7,8-tetrahydro-1,8-naphthyridin-2-yl)butyl)amino)-2-(quinazolin-4-ylamino)butanoic acid], the “solid form after heating” value in data set [4] is “amorphous”.
